Target: T1, KRAS G12C 1-169, his-tagged protein, GDP-loaded (Homo sapiens, UniProt P01116, G12C)
T1 construct: KRAS G12C 1-169, his-tagged protein, GDP-loaded
Assay: Biochemical assay: covalent modification of KRAS G12C measured by mass spectrometry (RapidFire/TOF or Q-Exactive)
Type: binding
Conditions: covalent binding to (modification of) KRAS G12C after a ten minute incubation period
Method in brief: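 Intact-mass readout (TOF or Q-Exactive, charge-envelope deconvolution) gives percent covalent adduct from modified and unmodified species. Compound at 10, 30 or 100 μM was incubated at room temperature for 10 min to 24 h with 2 μM or 0.5 μM GDP-bound KRAS G12C 1-169 in Hepes/NaCl/MgCl2 buffer, then acid-quenched.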

Row | Compound | Binding %
1 | C=CC(=O)N1C[C@H](C)N(c2nc(NC3CCN(C4CC4)CC3)nc3c(F)c(-c4c(C)ccc5[nH]nc(N)c45)c(Cl)cc23)C[C@H]1C [Compound 80, 1-((2R,5S)-4-(7-(3-amino-5-methyl-1H-indazol-4-yl)-6-chloro-2-(1-cyclopropylpiperidin-4-ylamino)-8-fluoroquinazolin-4-yl)-2,5-dimethylpiperazin-1-yl)prop-2-en-1-one] | +++ (+++ indicates binding activity greater than 80%)
2 | C=CC(=O)N1C[C@H](C)N(c2nc(OCCN3CCOCC3)nc3c(F)c(-c4c(C)ccc5onc(N)c45)c(Cl)cc23)C[C@H]1C [Compound 81, 1-((2R,5S)-4-(7-(3-amino-5-methylbenzo[d]isoxazol-4-yl)-6-chloro-8-fluoro-2-(2-morpholinoethoxy)quina-zolin-4-yl)-2,5-dimethylpiperazin-1-yl)prop-2-en-1-one] | ++ (++ indicates binding activity from 50 to 80%)
3 | C=CC(=O)N1C[C@H](C)N(c2nc(N3CC(N(C)C)C3)nc3c(F)c(-c4c(C)ccc5[nH]c(=O)[nH]c45)c(Cl)cc23)C[C@H]1C [Compound 82, 4-(4-((2S,5R)-4-acryloyl-2,5-dimethylpiperazin-1-yl)-6-chloro-2-(3-(dimethylamino)azetidin-1-yl)-8-fluoroquinazolin-7-yl)-5-methyl-1H-benzo[d]imidazol-2(3H)-one] | +++ (+++ indicates binding activity greater than 80%)
4 | C=CC(=O)N1C[C@H](C)N(c2nc(OCCN3CCC(F)(F)C3)nc3c(F)c(-c4c(C)ccc5onc(N)c45)c(Cl)cc23)C[C@H]1C [Compound 85, 1-((2R,5S)-4-(7-(3-amino-5-methylbenzo[d]isoxazol-4-yl)-6-chloro-2-(2-(3,3-difluoropyrrolidin-1-yl)ethoxy)-8-fluoroquinazolin-4-yl)-2,5-dimethylpiperazin-1-yl)prop-2-en-1-one] | +++ (+++ indicates binding activity greater than 80%)
5 | C=CC(=O)N1C[C@H](C)N(c2nc(N3CC(N(C)C)C3)nc3c(F)c(-c4c(C)ccc5nn[nH]c45)c(Cl)cc23)C[C@H]1C [Compound 86, 1-((2R,5S)-4-(6-chloro-2-(3-(dimethylamino)azetidin-1-yl)-8-fluoro-7-(6-methyl-1H-benzo[d][1,2,3]triazol-7-yl)quinazolin-4-yl)-2,5-dimethylpiperazin-1-yl)prop-2-en-1-one] | + (+ indicates binding activity greater than 0% and up to 50%)
6 | C=CC(=O)N1C[C@H](C)N(c2nc(NCCc3ncccn3)nc3c(F)c(-c4c(C)ccc5onc(N)c45)c(Cl)cc23)C[C@H]1C [Compound 91, 1-((2R,5S)-4-(7-(3-amino-5-methylbenzo[d]isoxazol-4-yl)-6-chloro-8-fluoro-2-(2-(pyrimidin-2-yl)ethylamino)quinazo-lin-4-yl)-2,5-dimethylpiperazin-1-yl)prop-2-en-1-one] | +++ (+++ indicates binding activity greater than 80%)
7 | C=CC(=O)N1C[C@H](C)N(c2nc(NCCN3CCOCC3)nc3c(F)c(-c4c(C)ccc5onc(N)c45)c(Cl)cc23)C[C@H]1C [Compound 92, 1-((2R,5S)-4-(7-(3-amino-5-methylbenzo[d]isoxazol-4-yl)-6-chloro-8-fluoro-2-(2-morpholinoethylamino)quinazolin-4-yl)-2,5-dimethylpiperazin-1-yl)prop-2-en-1-one] | ++ (++ indicates binding activity from 50 to 80%)
8 | C=CC(=O)N1C[C@H](C)N(c2nc(NCCC(=O)N3CCCC3)nc3c(F)c(-c4c(C)ccc5onc(N)c45)c(Cl)cc23)C[C@H]1C [Compound 93, 1-((2R,5S)-4-(7-(3-amino-5-methylbenzo[d]isoxazol-4-yl)-6-chloro-8-fluoro-2-(3-oxo-3-(pyrrolidin-1-yl)propylamino)quinazo-lin-4-yl)-2,5-dimethylpiperazin-1-yl)prop-2-en-1-one] | ++ (++ indicates binding activity from 50 to 80%)
9 | C=CC(=O)N1C[C@H](C)N(c2nc(N3CC(N(C)C)C3)nc3c(F)c(-c4c(C)ccc5[nH]nnc45)c(Cl)cc23)C[C@H]1C [Compound 94, 1-((2R,5S)-4-(6-chloro-2-(3-(dimethylamino)azetidin-1-yl)-8-fluoro-7-(5-methyl-1H-benzo[d][1,2,3]triazol-4-yl)quinazolin-4-yl)-2,5-dimethylpiperazin-1-yl)prop-2-en-1-one] | ++ (++ indicates binding activity from 50 to 80%)
10 | C=CC(=O)N1C[C@H](C)N(c2nc(N3CC(N(C)C)C3)nc3c(F)c(-c4c(C)ccc5onc(N)c45)c(Cl)cc23)C[C@H]1C [Compound 95, 1-((2R,5S)-4-((R)-7-(3-amino-5-methylbenzo[d]isoxazol-4-yl)-6-chloro-2-(3-(dimethylamino)azetidin-1-yl)-8-fluoroquinazolin-4-yl)-2,5-dimethylpiperazin-1-yl)prop-2-en-1-one] | +++ (+++ indicates binding activity greater than 80%)
11 | C=CC(=O)N1C[C@H](C)N(c2nc(N3CC(N(C)C)C3)nc3c(F)c(-c4c(C)ccc5onc(Cl)c45)c(Cl)cc23)C[C@H]1C [Compound 99, 1-((2R,5S)-4-(6-chloro-7-(3-chloro-5-methylbenzo[d]isoxazol-4-yl)-2-(3-(dimethylamino)azetidin-1-yl)-8-fluoroquinazolin-4-yl)-2,5-dimethylpiperazin-1-yl)prop-2-en-1-one] | + (+ indicates binding activity greater than 0% and up to 50%)
12 | C=CC(=O)N1C[C@H](C)N(c2nc(OCCN3CC[C@@H](OC)C3)nc3c(F)c(-c4c(C)ccc5[nH]nc(N)c45)c(Cl)cc23)C[C@H]1C [Compound 100, 1-((2R,5S)-4-(7-(3-amino-5-methyl-1H-indazol-4-yl)-6-chloro-8-fluoro-2-(2-((R)-3-methoxypyrrolidin-1-yl)ethoxy)quinazolin-4-yl)-2,5-dimethylpiperazin-1-yl)prop-2-en-1-one] | +++ (+++ indicates binding activity greater than 80%)
13 | C=CC(=O)N1C[C@H](C)N(c2nc(N3CC([N+](C)(C)C)C3)nc3c(F)c(-c4c(C)ccc5cnn(C)c45)c(Cl)cc23)C[C@H]1C [Compound 106, 1-((R)-4-((2S,5R)-4-acryloyl-2,5-dimethylpiperazin-1-yl)-6-chloro-7-(1,6-dimethyl-1H-indazol-7-yl)-8-fluoroquinazolin-2-yl)-N,N,N-trimethylazetidin-3-aminium] | +++ (+++ indicates binding activity greater than 80%)
14 | C=CC(=O)N1C[C@H](C)N(c2nc(N3CC(N(C)C)C3)nc3c(F)c(-c4c(C)ccc5[nH]nc(C)c45)c(Cl)cc23)C[C@H]1C [Compound 107, 1-((2R,5S)-4-(6-chloro-7-(3,5-dimethyl-1H-indazol-4-yl)-2-(3-(dimethylamino)azetidin-1-yl)-8-fluoroquinazolin-4-yl)-2,5-dimethylpiperazin-1-yl)prop-2-en-1-one] | + (+ indicates binding activity greater than 0% and up to 50%)
15 | C=CC(=O)N1C[C@H](C)N(c2nc(OCCN3CC[C@@H](F)C3)nc3c(F)c(-c4c(C)ccc5[nH]nc(N)c45)c(Cl)cc23)C[C@H]1C [Compound 108, 1-((2R,5S)-4-(7-(3-amino-5-methyl-1H-indazol-4-yl)-6-chloro-8-fluoro-2-(2-((R)-3-fluoropyrrolidin-1-yl)ethoxy)quinazolin-4-yl)-2,5-dimethylpiperazin-1-yl)prop-2-en-1-one] | +++ (+++ indicates binding activity greater than 80%)
16 | C=CC(=O)N1C[C@H](C)N(c2nc(OCCN3CC[C@H](F)C3)nc3c(F)c(-c4c(C)ccc5[nH]nc(N)c45)c(Cl)cc23)C[C@H]1C [Compound 109, 1-((2R,5S)-4-(7-(3-amino-5-methyl-1H-indazol-4-yl)-6-chloro-8-fluoro-2-(2-((S)-3-fluoropyrrolidin-1-yl)ethoxy)quinazolin-4-yl)-2,5-dimethylpiperazin-1-yl)prop-2-en-1-one] | +++ (+++ indicates binding activity greater than 80%)
17 | C=CC(=O)N1C[C@H](C)N(c2nc(OCCN3CCCC(F)(F)C3)nc3c(F)c(-c4c(C)ccc5[nH]nc(N)c45)c(Cl)cc23)C[C@H]1C [Compound 114, 1-((2R,5S)-4-(7-(3-amino-5-methyl-1H-indazol-4-yl)-6-chloro-2-(2-(3,3-difluoropiperidin-1-yl)ethoxy)-8-fluoroquinazolin-4-yl)-2,5-dimethylpiperazin-1-yl)prop-2-en-1-one] | +++ (+++ indicates binding activity greater than 80%)
18 | C=CC(=O)N1C[C@H](C)N(c2nc(N3CC(N(C)C)C3)nc3c(F)c(-c4c(C)ccc5[nH]nc(C(F)(F)F)c45)c(Cl)cc23)C[C@H]1C [Compound 115, 1-((2R,5S)-4-(6-chloro-2-(3-(dimethylamino)azetidin-1-yl)-8-fluoro-7-(5-methyl-3-(trifluoromethyl)-1H-indazol-4-yl)quinazolin-4-yl)-2,5-dimethylpiperazin-1-yl)prop-2-en-1-one] | + (+ indicates binding activity greater than 0% and up to 50%)
19 | C=CC(=O)N1C[C@H](C)N(c2nc(OCCN3CCC(F)(F)CC3)nc3c(F)c(-c4c(C)ccc5[nH]nc(N)c45)c(Cl)cc23)C[C@H]1C [Compound 118, 1-((2R,5S)-4-(7-(3-amino-5-methyl-1H-indazol-4-yl)-6-chloro-2-(2-(4,4-difluoropiperidin-1-yl)ethoxy)-8-fluoroquinazolin-4-yl)-2,5-dimethylpiperazin-1-yl)prop-2-en-1-one] | +++ (+++ indicates binding activity greater than 80%)
20 | C=CC(=O)N1C[C@H](C)N(c2nc(N3CC(N(C)C)C3)nc3c(F)c(-c4c(C)ccc5[nH]nc(NC(C)=O)c45)c(Cl)cc23)C[C@H]1C [Compound 119, N-(4-(4-((2S,5R)-4-acryloyl-2,5-dimethylpiperazin-1-yl)-6-chloro-2-(3-(dimethylamino)azetidin-1-yl)-8-fluoroquinazolin-7-yl)-5-methyl-1H-indazol-3-yl)acetamide] | + (+ indicates binding activity greater than 0% and up to 50%)

From patent US11377441B2, “Covalent inhibitors of KRAS” (Araxes Pharma LLC, priority 2017, dated 2022)
